The values below are quoted from earlier work in patent US20050032777A1, “Diazacycloalkanes as oxytocin agonists” (priority 2001, published 2005).

The data set concerns erectile response. The following applies: male rats.

Structures are written as SMILES. Read-outs that look alike come from different tables or passages of the source.

For the compound `CC[C@H](C)[C@@H]1NC(=O)[C@H](Cc2ccc(O)cc2)NC(=O)[C@@H](N)CSSC[C@@H](C(=O)N2CCC[C@H]2C(=O)N[C@@H](CC(C)C)C(=O)NCC(N)=O)NC(=O)[C@H](CC(N)=O)NC(=O)[C@H](CCC(N)=O)NC1=O` [OT, oxytocin], the erectogenic activity result runs as follows: (i.c.v.) “erectogenic”; (iv., doses up to two orders of magnitude greater than i.c.v.) “erectogenic activity”.
